This passage reports inhibition results from publication PMC6934184, “Selective DNA-PKcs inhibition extends the therapeutic index of localized radiotherapy and chemotherapy” (The Journal of Clinical Investigation, 2019).

The assay deals with T1, EPHA3 (Homo sapiens, UniProt P29320).
T1 construct: purchased Thermo Fisher Scientific (Life Technologies) SelectScreen
Put plainly: SelectScreen LanthaScreen. The assay is classed as binding. Particulars: read-out: % displacement. In a few lines:
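Percent values come from Thermo SelectScreen profiling of NU5455, combining activity and binding assays. CSF1R was run in Z'LYTE format at Km app ATP, and CAMK1 in Adapta format with ATP listed at 10.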

T1 sequence (P29320 21-983): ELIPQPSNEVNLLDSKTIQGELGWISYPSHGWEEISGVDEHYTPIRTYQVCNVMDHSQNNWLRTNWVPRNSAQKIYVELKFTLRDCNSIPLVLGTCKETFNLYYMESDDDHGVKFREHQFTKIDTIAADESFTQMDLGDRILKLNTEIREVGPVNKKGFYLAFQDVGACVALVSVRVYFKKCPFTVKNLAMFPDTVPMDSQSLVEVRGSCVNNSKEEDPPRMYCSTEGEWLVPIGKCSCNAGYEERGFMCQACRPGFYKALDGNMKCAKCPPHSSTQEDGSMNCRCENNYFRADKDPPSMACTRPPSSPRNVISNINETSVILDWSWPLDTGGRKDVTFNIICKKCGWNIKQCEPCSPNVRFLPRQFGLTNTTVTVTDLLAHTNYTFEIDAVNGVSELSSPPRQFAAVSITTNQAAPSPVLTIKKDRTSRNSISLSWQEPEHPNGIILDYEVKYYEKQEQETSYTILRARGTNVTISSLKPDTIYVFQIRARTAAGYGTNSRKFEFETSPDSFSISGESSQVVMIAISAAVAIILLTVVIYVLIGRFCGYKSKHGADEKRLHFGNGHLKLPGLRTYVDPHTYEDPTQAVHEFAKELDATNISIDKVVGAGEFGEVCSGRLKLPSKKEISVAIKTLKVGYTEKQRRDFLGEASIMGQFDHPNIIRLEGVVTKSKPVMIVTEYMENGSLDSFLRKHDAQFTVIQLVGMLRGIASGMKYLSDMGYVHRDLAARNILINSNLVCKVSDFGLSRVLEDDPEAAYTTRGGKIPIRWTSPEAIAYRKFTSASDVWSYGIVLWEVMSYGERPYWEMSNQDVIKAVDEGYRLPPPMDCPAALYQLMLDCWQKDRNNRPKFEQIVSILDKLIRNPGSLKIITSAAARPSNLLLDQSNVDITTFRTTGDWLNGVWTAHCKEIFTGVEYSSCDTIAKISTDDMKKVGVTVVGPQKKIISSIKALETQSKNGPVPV

Regarding `CN(C(=O)CN1CCOCC1)c1ccc2sc3c(-c4cccc5c(=O)cc(N6CC7CCC(C6)O7)oc45)cccc3c2c1` [NU5455], the inhibition at 1 µM was -0.3%.
